From patent publication US10967078B2, “Radiolabelled mGluR2 PET ligands” (Janssen Pharmaceutica NV, priority 2014, dated 2021)

What was measured:
[1] = target: mGlu1 (Homo sapiens, UniProt Q13255); assay: Selectivity for mGluR2 versus mGluR1; assay type: biochemical
[2] = target: mGlu3 (Homo sapiens, UniProt Q14832); assay: Selectivity for mGluR2 versus mGluR3; assay type: biochemical
[3] = target: mGlu4 (Homo sapiens, UniProt Q14833); assay: Selectivity for mGluR2 versus mGluR4; assay type: biochemical
Sequence of mGlu4 (Q14833 33-912): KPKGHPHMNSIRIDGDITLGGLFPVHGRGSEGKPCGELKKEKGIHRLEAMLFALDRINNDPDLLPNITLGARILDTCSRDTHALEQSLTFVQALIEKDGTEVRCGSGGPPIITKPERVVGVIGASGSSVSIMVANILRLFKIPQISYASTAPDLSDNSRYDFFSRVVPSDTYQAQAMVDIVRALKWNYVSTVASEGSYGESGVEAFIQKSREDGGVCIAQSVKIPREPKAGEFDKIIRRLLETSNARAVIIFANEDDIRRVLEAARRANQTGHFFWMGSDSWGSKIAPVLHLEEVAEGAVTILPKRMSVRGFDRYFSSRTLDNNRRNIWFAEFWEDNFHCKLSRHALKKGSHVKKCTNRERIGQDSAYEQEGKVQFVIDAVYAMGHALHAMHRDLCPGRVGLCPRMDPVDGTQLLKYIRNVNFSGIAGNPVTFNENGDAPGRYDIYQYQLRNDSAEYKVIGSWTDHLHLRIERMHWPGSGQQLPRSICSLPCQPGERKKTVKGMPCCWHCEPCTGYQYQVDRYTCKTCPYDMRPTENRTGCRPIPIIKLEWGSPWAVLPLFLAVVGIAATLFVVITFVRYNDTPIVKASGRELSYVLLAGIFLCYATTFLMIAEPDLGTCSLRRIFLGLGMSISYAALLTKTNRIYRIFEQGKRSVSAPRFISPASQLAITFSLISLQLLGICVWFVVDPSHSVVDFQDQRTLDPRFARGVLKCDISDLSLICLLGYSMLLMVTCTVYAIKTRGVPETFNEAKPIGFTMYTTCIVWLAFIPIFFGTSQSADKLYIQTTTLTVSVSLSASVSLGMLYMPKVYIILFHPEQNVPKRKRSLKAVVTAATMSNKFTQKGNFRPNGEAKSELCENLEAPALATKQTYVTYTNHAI

[4] = target: mGlu5 (Homo sapiens, UniProt P41594); assay: Selectivity for mGluR2 versus mGluR5; assay type: biochemical
Sequence of mGlu5 (P41594 21-1212): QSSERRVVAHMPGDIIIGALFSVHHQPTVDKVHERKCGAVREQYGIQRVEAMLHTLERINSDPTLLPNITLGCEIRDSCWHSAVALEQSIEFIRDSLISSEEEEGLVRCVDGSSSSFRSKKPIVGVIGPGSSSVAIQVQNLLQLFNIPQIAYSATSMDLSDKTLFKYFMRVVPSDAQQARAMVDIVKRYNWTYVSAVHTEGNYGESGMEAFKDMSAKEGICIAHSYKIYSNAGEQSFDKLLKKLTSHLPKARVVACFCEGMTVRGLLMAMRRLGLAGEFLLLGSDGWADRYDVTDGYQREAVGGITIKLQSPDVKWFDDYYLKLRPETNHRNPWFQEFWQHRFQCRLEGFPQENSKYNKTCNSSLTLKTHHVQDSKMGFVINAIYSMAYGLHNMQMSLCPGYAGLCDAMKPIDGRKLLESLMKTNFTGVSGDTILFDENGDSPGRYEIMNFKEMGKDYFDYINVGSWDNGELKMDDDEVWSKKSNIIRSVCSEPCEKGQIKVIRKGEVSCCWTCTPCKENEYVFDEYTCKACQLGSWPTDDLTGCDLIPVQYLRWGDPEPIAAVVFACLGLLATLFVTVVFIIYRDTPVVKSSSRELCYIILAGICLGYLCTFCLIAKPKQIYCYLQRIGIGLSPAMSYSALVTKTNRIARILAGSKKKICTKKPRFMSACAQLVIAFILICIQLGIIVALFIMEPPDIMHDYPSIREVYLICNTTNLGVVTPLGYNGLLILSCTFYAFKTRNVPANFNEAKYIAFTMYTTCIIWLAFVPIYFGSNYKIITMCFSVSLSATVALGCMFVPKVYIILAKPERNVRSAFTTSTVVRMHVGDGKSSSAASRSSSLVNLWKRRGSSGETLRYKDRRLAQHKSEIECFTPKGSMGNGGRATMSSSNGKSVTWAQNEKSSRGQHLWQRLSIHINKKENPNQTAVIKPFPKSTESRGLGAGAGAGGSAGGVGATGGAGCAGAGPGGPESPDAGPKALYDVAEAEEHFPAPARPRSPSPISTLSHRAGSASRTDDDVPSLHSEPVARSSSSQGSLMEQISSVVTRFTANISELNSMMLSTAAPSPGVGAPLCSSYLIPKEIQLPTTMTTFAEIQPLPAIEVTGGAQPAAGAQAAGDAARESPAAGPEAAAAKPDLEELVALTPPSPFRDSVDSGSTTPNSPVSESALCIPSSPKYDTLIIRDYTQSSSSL

[5] = target: mGlu7 (Homo sapiens, UniProt Q14831); assay: Selectivity for mGluR2 versus mGluR7; assay type: biochemical
Sequence of mGlu7 (Q14831 35-915): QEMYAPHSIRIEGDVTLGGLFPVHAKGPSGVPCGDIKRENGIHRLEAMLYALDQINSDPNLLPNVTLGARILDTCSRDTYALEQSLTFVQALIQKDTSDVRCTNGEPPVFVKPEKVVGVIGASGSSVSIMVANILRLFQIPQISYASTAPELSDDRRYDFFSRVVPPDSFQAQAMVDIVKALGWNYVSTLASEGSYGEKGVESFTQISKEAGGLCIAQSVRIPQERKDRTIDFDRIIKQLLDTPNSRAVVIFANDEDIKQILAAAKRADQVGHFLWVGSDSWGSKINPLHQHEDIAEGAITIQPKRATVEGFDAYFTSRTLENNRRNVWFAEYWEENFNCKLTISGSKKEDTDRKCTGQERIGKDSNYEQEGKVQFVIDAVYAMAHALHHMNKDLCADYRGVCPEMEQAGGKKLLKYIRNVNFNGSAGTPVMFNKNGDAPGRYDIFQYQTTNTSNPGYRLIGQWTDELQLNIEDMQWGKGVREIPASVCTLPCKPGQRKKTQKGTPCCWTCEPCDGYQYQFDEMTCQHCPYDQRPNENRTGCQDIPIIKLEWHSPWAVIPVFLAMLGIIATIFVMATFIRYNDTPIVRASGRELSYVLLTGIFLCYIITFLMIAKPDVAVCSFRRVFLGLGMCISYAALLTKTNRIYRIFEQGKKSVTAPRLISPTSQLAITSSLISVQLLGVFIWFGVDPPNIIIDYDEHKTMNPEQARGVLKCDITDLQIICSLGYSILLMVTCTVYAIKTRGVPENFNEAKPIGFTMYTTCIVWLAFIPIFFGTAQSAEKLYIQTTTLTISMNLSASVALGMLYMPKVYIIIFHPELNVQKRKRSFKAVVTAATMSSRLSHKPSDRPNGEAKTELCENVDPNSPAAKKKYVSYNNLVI

[6] = target: mGlu8 (Homo sapiens, UniProt O00222); assay: Selectivity for mGluR2 versus mGluR8; assay type: biochemical
[7] = target: T1, human mGlu2 receptor (Homo sapiens, UniProt Q14416); assay: [35S]GTPγS binding assay, membranes from CHO cells transfected with the human mGlu2 receptor (NAM activity); assay type: biochemical
T1 construct: expressed in transfected cells; host or cells: CHO cells
Protocol: The [^35S]GTPγS binding assay is a functional membrane-based assay used to study G-protein coupled receptor (GPCR) function whereby incorporation of a non-hydrolysable form of GTP, [^35S]GTPγS (guanosine 5′-triphosphate, labelled with […] ^35S), is measured. The G-protein a subunit catalyzes the exchange of guanosine 5′-diphosphate (GDP) by guanosine triphosphate (GTP) and on activation of the GPCR by an agonist, [^35S]GTPγS, becomes incorporated and cannot be cleaved to continue the exchange cycle (Harper (1998) Current Protocols in Pharmacology 2.6.1-10, John Wiley & Sons, Inc.). […]
CHO-cells were cultured to pre-confluence and stimulated with 5 mM butyrate for 24 h. […] Protein concentration was determined by the Bradford method (Bio-Rad, USA) with bovine serum albumin as standard.
Measurement of mGluR2 negative allosteric modulatory activity of test compounds was performed as follows. […] Membrane-bound radioactivity was counted in a Topcount.
The concentration-response curves of representative compounds of the present invention were generated using the Lexis software interface (developed at J&J). Data were calculated as % of the control glutamate response, defined as the response that is generated upon addition of an EC80-equivalent concentration of glutamate. […] The concentration producing half-maximal inhibition was calculated as the IC50. […]

Sequence of mGlu3 (Q14832 23-879): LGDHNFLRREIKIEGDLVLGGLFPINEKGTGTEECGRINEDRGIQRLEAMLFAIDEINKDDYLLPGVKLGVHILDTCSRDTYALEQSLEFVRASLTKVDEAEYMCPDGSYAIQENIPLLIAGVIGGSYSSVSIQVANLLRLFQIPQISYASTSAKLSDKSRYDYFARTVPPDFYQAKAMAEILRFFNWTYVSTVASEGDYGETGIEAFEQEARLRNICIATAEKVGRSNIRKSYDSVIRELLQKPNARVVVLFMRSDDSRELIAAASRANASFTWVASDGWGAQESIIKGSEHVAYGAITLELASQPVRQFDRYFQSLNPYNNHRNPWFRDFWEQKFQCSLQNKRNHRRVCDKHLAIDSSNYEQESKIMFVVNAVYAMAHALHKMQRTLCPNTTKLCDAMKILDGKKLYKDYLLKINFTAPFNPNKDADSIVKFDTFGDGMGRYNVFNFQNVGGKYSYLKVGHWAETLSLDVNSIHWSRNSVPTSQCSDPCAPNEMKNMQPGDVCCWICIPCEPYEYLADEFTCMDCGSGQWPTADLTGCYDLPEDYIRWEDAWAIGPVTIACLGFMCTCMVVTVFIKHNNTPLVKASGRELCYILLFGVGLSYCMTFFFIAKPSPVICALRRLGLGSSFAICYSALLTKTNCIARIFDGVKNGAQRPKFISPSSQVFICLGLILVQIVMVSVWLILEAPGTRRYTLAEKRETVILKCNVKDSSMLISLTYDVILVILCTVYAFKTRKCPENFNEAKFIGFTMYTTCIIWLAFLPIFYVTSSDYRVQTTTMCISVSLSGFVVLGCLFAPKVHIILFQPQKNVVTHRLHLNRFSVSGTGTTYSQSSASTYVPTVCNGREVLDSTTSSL
Sequence of mGlu1 (Q13255 19-1194): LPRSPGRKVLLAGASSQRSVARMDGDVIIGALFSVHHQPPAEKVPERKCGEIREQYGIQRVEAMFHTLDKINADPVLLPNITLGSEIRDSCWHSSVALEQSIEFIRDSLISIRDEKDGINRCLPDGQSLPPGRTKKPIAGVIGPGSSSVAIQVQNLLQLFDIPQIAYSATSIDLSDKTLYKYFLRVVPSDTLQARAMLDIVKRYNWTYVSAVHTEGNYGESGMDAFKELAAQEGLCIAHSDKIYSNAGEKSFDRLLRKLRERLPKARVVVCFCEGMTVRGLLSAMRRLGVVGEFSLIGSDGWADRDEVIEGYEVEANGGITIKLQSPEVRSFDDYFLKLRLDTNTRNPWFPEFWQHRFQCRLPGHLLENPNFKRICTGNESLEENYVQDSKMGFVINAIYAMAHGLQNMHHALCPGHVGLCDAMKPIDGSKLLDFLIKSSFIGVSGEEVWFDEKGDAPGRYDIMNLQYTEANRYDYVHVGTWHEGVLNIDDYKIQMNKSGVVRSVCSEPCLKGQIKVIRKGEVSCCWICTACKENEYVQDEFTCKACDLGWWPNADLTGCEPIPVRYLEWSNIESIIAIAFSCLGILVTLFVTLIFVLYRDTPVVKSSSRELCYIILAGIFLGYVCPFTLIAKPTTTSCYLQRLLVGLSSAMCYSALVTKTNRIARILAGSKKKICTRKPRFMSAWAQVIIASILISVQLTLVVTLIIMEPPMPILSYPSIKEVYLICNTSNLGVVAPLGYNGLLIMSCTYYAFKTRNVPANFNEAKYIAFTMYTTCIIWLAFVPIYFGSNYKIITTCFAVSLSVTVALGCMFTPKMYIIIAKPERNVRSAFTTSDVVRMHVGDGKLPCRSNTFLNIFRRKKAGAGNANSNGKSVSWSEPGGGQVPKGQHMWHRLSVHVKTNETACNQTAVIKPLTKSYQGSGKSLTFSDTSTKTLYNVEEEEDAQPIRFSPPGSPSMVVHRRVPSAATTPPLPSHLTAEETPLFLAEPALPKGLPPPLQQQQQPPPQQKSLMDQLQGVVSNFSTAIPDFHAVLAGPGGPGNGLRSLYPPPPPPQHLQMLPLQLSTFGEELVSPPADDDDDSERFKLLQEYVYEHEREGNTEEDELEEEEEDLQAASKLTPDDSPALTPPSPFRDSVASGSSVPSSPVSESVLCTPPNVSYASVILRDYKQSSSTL

## Cc1cc(-c2cnn3c2C(=O)N(c2ccc(C(F)(F)F)cc2)C[C@@H]3C)ccn1 [Co. No. 1, (7S)-7-Methyl-3-(2-methylpyridin-4-yl)-5-[4-(trifluoromethyl)phenyl]-6,7-dihydropyrazolo[1,5-a]pyrazin-4(5H)-one]
[1]
  Selectivity over mGlu1: 1122.0
[2]
  Selectivity over mGlu3: 25.7
[3]
  Selectivity over mGlu4: 5623.4
[4]
  Selectivity over mGlu5: 1122.0
[5]
  Selectivity over mGlu7: 1122.0
[6]
  Selectivity over mGlu8: 1122.0

## C[C@H]1CN(c2ccc(Cl)c(Cl)c2)C(=O)c2c(-c3ccnc(F)c3)cnn21 [Co. No. 3, (7S)-5-(3,4-Dichlorophenyl)-3-(2-fluoro-4-pyridyl)-7-methyl-6,7-dihydropyrazolo[1,5-a]pyrazin-4-one]
[1]
  Selectivity over mGlu1: 1819.7
[2]
  Selectivity over mGlu3: 16.2
[3]
  Selectivity over mGlu4: 9120.1
[4]
  Selectivity over mGlu5: 1819.7
[5]
  Selectivity over mGlu7: 1819.7
[6]
  Selectivity over mGlu8: 1819.7
other
  melting point: 170.3 °C

## CNc1cc(-c2cnn3c2C(=O)N(c2ccc(S(F)(F)(F)(F)F)cc2)C[C@@H]3C)ccn1 [Co. No. 4, (7S)-7-Methyl-3-[2-(methylamino)-4-pyridyl]-5-[4-(pentafluoro-λ^6-sulfanyl)phenyl]-6,7-dihydropyrazolo[1,5-a]pyrazin-4-one]
[7]; glutamate 60 μM (~EC80), read-out: GTPγS - hmGluR2 anGT pIC50 (converted)
  IC50: 3.02 nM
[7]; maximal % inhibition relative to the control glutamate response, read-out: GTPγS - hmGluR2 anGT Emax
  Emax: 106%
[2]
  Selectivity over mGlu3: 77.6
